In the oligonucleotide strings, read from the 5' end, every base follows the letter of its sugar. An asterisk marks phosphorothioate; unmarked linkages are phosphodiester. Other units and linkages are bracketed, terminal groups are in braces. A string of capitals states the bases alone. d = 2'-deoxy (DNA)
Experiments:
[1] = system: CD4+ Treg cells (Treg102, Treg164); assay: Proliferation assay without DCs: Treg suppression of naive CD4+ T cell proliferation, anti-CD3-coated plates; type: cell-based, human; details: absence of DCs; for reversal of Treg cell-mediated suppression of naive CD4+ T cell proliferation: anti-CD3-coated plates, oligonucleotides 3 ug/ml in medium
Description: (§1) Establishing Treg cell lines and purifying natural CD4^+ CD25^+ Treg cells CD4^+ Treg clones were established from CD4^+ tumor-infiltrating lymphocytes (TIL102 and TIL164) and maintained in RPMI 1640 medium containing 10% human AB serum and recombinant IL-2 (300 IU/ml) using methods well known in the art (See, e.g., H. Y. Wang et al., Immunity 20, 107-118 (2004)). Treg clones derived from TIL102 or TIL164 cells were pooled and designated Treg102 or Treg164. Naturally occurring CD4^+ CD25^+ Treg cells were obtained by sorting CD4^+ T cell populations from fresh PBMCs after staining with anti-CD4 and anti-CD25 antibodies. To obtain optimal expansion, the OKT3 expansion method was performed using methods well known in the art (See, e.g., H. Y. Wang et al., Immunity 20, 107-118 (2004)). T cell clones were maintained at a low IL-2 concentration (300 IU/ml). Melanoma cell lines and EBV-transformed B-cell lines used in this study were cultured in RPMI 1640 medium containing 10% FCS. Human embryonic kidney (HEK) 293 and Epstein-Barr virus (EBV)-transformed B cell lines were maintained in RPMI 1640 with 10% fetal calf serum (FCS).
B. Proliferation assay without DCs: 1×10^5 näive CD4 T cells were cultured with regulatory T cells at different ratios (1: 0.2, 1:0.1 and 1:0.05) in anti-CD3 mAb-coated (2 ug/ml) 96-well plates in the presence or absence of the following TLR ligands or cytokines: CpG-A (3 ug/ml), CpG-B (3 ug/ml), LPS (100 ng/ml), TNF.-α (20 ng/ml), IFN-α (100 ng/ml), or IL-6 (100 ng/ml). After 56 h of culture, [3H]thymidine was added at a final concentration of 1 uCi/well, followed by an additional 16 h of culture. The incorporation of [^3H]thymidine was measured with a liquid scintillation counter.
Näive CD4^+ T cell proliferation experiments were performed similar to those in FIG. 1A, but in the absence of DCs. […] The reversal effect of CpG-A (SEQ ID NO: 1) contrasts with the failure of CpG-B (SEQ ID NO: 2), LPS, TNF-α, IL-6 or IFN-α to block the suppressive activity of CD4^+ Treg cells against naive CD4^+ T cells (FIG. 1B).
To further define the CpG-A (SEQ ID NO: 1) sequences responsible for the observed reversal effect, CpG-NG (SEQ ID NO: 5) and Poly-G10 (SEQ ID NO: 6), were tested for their ability to reverse the suppressive function of Treg cells. Naive CD4^+ T cells were mixed with CD4^+ Treg cells in anti-CD3 antibody-coated 96-wells with 200 μl of medium containing CpG-NG (SEQ ID NO: 5), CpG-A (SEQ ID NO: 1) or Poly-G10 (SEQ ID NO: 6). The proliferation assay was conducted as described in FIG. 1. […] For the experiments shown in FIG. 2B, naive CD4^+ T cells were mixed with CD4^+ Treg cells in anti-CD3 antibody-coated 96-wells with 200 μl of medium containing Poly-A10 (SEQ ID NO: 7), Poly-T10 (SEQ ID NO: 9) or Poly-C10 (SEQ ID NO: 8), while the Poly-G10 (SEQ ID NO: 6) oligonucleotides served as a positive control.
A series of oligonucleotides with decreasing numbers of guanosine nucleosides was constructed to determine the minimal number required for the reversal effect. For the experiments in FIG. 2C, CD4^+ T cells were mixed with CD4^+ Treg cells in anti-CD3 antibody-coated 96-wells containing medium with protected phosphorothioate linked guanosine nucleoside containing oligonucleotides of various lengths, while the unprotected five guanosines (SEQ ID NO: 10) served as a control.

[2] = system: CD4+ Treg cells (Treg102, Treg164); assay: Proliferation assay with dendritic cells: Treg suppression of naive CD4+ T cell proliferation ([3H]thymidine); type: cell-based, human; details: with DCs and soluble anti-CD3; CpG-A 3 ug/ml
Description: as §1
A. Proliferation assay with Dendritic Cells (DCs): Näive CD4^+ T cells were purified from PBMCs using microbeads (Miltenvi Biotec). DCs were generated from PBMC-derived monocytes in the presence of IL-4 (500 ng/ml) and GM-CSF (800 ng/ml) for 7 days. 1×105 näive CD4^+ T cells were cultured with regulatory T cells at different ratios (1: 0.2, 1:0.1 and 1:0.05) in 200 ul of medium containing 2×104 of DCs and anti-CD3 antibody (100 ng/ml) plus one of the following TLR ligands or cytokines: CpG-A (3 ug/ml), CpG-B (3 ug/ml), LPS (100 ng/ml), TNF.-α (20 ng/ml), IFN-α (100 ng/ml), or IL-6 (100 ng/ml). After 56 h of culture, [3H]thymidine was added at a final concentration of 1 uCi/well, followed by an additional 16 h. of culture. The incorporation of [^3H]thymidine was measured with a liquid scintillation counter, using methods well known in the art (See, e.g., M. K. Levings et al., J. Exp. Med. 196, 1335-46 (2002)). All experiments were performed in triplicate.
Two CD4^+ Treg cell lines, designated Treg102 and Treg164, were generated with a panel of Treg cell clones derived from TIL102 and TIL164 cells. […] A functional proliferation assay was employed to examine whether CpG (a TLR9 ligand), LPS (a TLR4 ligand) or the cytokines IL-6 or IFN-α could regulate the suppressive activity of antigen specific human CD4^+ Treg cells in the presence of DCs. […]

Poly-G10: guanosine oligonucleotide with protected phosphorothioate backbone (DNA dG*dG*dG*dG*dG*dG*dG*dG*dG*dG)
reversal of Treg cell-mediated suppression of naive CD4+ T cell proliferation [1]: retained or even enhanced

G* GGGGACGATCGTCG* G*G*G*G*G [CpG-A]
proliferation of naive CD4+ T cells restored, % of normal levels [2]: 50-80% | effect on proliferation of naive CD4+ T cells or Treg cells alone [1]: lacked any effect | reversal of Treg cell-mediated suppression of naive CD4+ T cell proliferation [1]: restored the proliferation of naive CD4^+ T cells to near normal levels

— patent publication US20090209620A1, “Direct Reversal Of The Suppressive Function Of CD4+Regulatory T Cells Via Toll-Like Receptor 8 Signaling” (priority 2005, published 2009)
